Measurements from patent US20120114706A1, “Endorphin Therapy Compositions and Methods of Use Thereof” (priority 2008, published 2012).
Entries after “also recorded” stand apart in the source; their conditions may differ.

Experiments:
MADB106 cells = assay: Pharmacologic modification of autonomic influence on immune system and lung metastasis; assay type: in vivo, rat; conditions: for PBMC NK cell activity / macrophage migration activity: 24 hours after MADB106 inoculation, naloxone 10, MP/MET 0.8, MLA 2.5 mg/kg or saline; for effect on β-EP elimination of tumor cell lung retention: β-EP transplanted Fischer rats, naloxone 10, MP/MET 0.8, MLA 2.5 mg/kg for 8 days
Method: 48 β-EP implanted (SC) male Fischer rats and 48 control (C) male Fischer rats were divided into 8 groups, treated with saline, Naloxone (10 mg/kg body weight), Metaproterenol (MP, 0.8 mg/kg body weight), or Methyllycaconitine (MLA, 2.5 mg/kg body weight), respectively. Animals were treated with drugs for 8 days. In the second day of drug injection, animals were inoculated with MADB106 cells (100,000/0.2 ml/rat). 24 hours after tumor cell inoculation, blood was collected by orbital puncture. Plasma was collected, and PBMCs were separated for migration assay and NK cytolytic assay. 7 days after tumor inoculation, blood was taken again by orbital puncture. Plasma was collected, and PBMCs were separated for migration assay and T cell cytolytic assay. After 6 weeks, animals were sacrificed, and brains, spleens and blood were frozen. Lungs were fixed in formalin and processed to H&E staining. […] However, 7 days after tumor inoculation, there isn't a clear pattern of T cell cytolytic activity and macrophage migration activity between groups (FIGS. 30B and 30D).
It was hypothesized that the beneficial effect of BEP neuron transplants on immune function is regulated through autonomic nervous system, and that central BEP modulate peripheral immune function by inhibiting the sympathetic activity and activating the parasympathetic activity. Metaproterenol (MET) is an agonist for β-receptors, which are a class of G protein-coupled receptors that are targets of the catecholamines, especially norepinephrine and epinephrine (Dokur et al. (2004) J Neuroimmunol 5:148-57; Page et al. (2008) J Neuroimmunol 193:113-9). Methyllycaconitine (MLA) is a selective antagonist of α7 nicotine acetylcholine receptor (α7 nAChR; Wu et al. (2011) Clin Cancer Res 17:3533-41). By injecting MET and MLA i.p., the stimulation of sympathetic nerves and inhibition of parasympathetic nerves was mimicked. Naloxone, an opiate receptor antagonist, was used to test whether BEP neuronal effects is acted via opiodergic receptor (Boyadjieva et al. (2006) Alcohol Clin Exp Res 30:1761-7). Forty-eight BEP neuron-transplanted Fischer rats and 48 control rats were divided into 8 groups and treated with saline, naloxone (10 mg/kg body weight), MET (0.8 mg/kg body weight), or MLA (2.5 mg/kg body weight) for 8 days (the doses used for these drugs are recognized as effective biological doses). A day after the first injection of these agents, animals were inoculated with MADB106 cells (100,000/0.2 mL/rat). Twenty-four hours after tumor cell inoculation, blood was collected by orbital puncture. Plasma was collected, and peripheral blood mononuclear cells (PBMC) were separated for migration assay and NK cytolytic assay. These animals continued receiving the blocker treatments for 7 days. After 4 weeks they were sacrificed, their lungs were fixed in formalin and processed to H&E staining for determination of cancer pathology. Brain tissues were processed for verification of the site and viability of BEP cell transplantation.

[1] = test system: differentiated BEP neurons; assay: PGE1-induced BEP release and POMC expression of differentiated neurons; assay type: cell-based, rat; conditions: PGE1 10 μM
Method: Enriched hypothalamic neurons were maintained in HDMEM, containing 10% FBS, for 3 weeks. Each week, cells were trypsinized and cultured. By the beginning of the third week, many spheres started to develop. These spheres were separated and dissociated into single cells by using trypsin/EDTA (Sigma) solution. They were then cultured in suspension or in poly-L-ornithine-coated 24-well plates (20,000 cells/well) in stem cell medium (DME F-12, […] (LIF), 0.1 μg/ml; L-glutamine, 10 mM; rat bFGF, 20 ng/ml; Mem amino acids solution, MAA, 0.5%; all of the chemicals were from Sigma except that bFGF was obtained from R&D Systems, Minneapolis, Minn.). Cells were cultured for 2 weeks, during which they grew and developed secondary spheres. Some of these cultures were used for immunocytochemical localization of nestin staining to determine whether they were neurospheres. These neurospheres were maintained in cultures for several months by regularly changing the medium and by splitting cells. The secondary spheres were re-suspended and cultured in poly-L-ornithine-coated 24-well plates (20,000/well; for physiological studies) or in poly-L-ornithine-coated 8-well permanox slides (1000 cells/slide; NaIg Nunc International Corp., IL; for histochemical studies). The differentiation experiments were performed by treating these cells for 1 week with PACAP (1-10 μM; SynPep) and dbcAMP (1-10 μM; Sigma) or a combination of both, and then in defined cell culture medium without the drugs for 1 week. At day 3, day 7 and day 14 the immunocytochemical, biochemical and/or real-time RT-PCR analyses were performed.
The immunoreactive β-endorphin levels in culture medium samples were measured by a radioimmunoassay system (De et al. (1994) J. Biol. Chem., 269:26697-26705). All the samples were dried and reconstituted in assay buffer and measured in duplicate in a single assay. The minimum amount of β-endorphin detectable was 3 pg/tube.
Expression levels of POMC mRNA in NSCs and differentiated cells were measured by a quantitative real-time RT-PCR (TaqMan assay) on an ABI PRISM 7700 Sequence Detector (PerkinElmer Applied Biosystems, Foster City, Calif.) as described previously (Chen et al. (2004) J. Neurochem., 88:1547-1554). […] The expression of POMC mRNA was detected using a POMC gene-specific primer pair and probe (TaqMan Gene Expression Assay, Rn00595020_ml; Applied Biosystems; Foster City, Calif.). […] The relative quantity of mRNA was calculated by relating the PCR threshold cycle obtained from the tested samples to relative standard curves degenerated from a serial dilution of cDNA prepared from the total RNA. The POMC mRNA level in each sample was normalized with the level of GAPDH mRNA which was measured by a control reagent (PerkinElmer Applied Biosystems). […]

[2] = test system: rat hypothalamic neuronal stem cells (NSCs); assay: Differentiation of hypothalamic neuronal stem cells to BEP neurons in culture; assay type: cell-based; conditions: agent alone, 0.1-10 μM
Method: Fetal brains were obtained from 17-day-old pregnant rats (Simonsen laboratories; Gilroy, […].). Mediobasal hypothalamic tissues from these rats were dissected out and cells from these tissues were dissociated, and mixed hypothalamic cell cultures were prepared as previously described (De et al. (1994) J. Biol. Chem., 269:26697-26705). Neurons were separated from glial cells by filtering mixed hypothalamic cells through a 48-μM nylon mesh. Then hypothalamic cells were sedimented at 400 g for 10 minutes; pellets were re-suspended in HEPES-buffered Dulbecco's Modified Eagle's Medium (HDMEM, 4.5 g/l glucose; Sigma, St. Louis, Mo.); and cells were cultured into poly-ornithine coated 25-cm^2 tissue culture flasks (2.5 million cells/flask) in HDMEM-containing 10% fetal bovine serum (FBS) and 1% penicillin/streptomycin. On day 2, the culture medium was replaced with HDMEM containing 10% FBS, 33.6 μg/ml uridine and 13.6 μg/ml 5-fluodeoxyuridine to prevent the overgrowth of astroglial cells. All of these chemicals were obtained from Sigma. On day 3, the culture medium was replaced with HDMEM-containing serum supplement (30 nM selenium, 20 nM progesterone, 1 μM iron-free human transferrin, 5 μM insulin, and 100 μM putrescin) and 1% penicillin/streptomycin. […] By this time, these cultures were approximately 85-90% neurons, as determined by MAP-2 positivity. […]

Compound	PBMC NK cell activity (MADB106 cells)	macrophage migration activity (MADB106 cells)	effect on β-EP elimination of tumor cell lung retention (MADB106 cells)	effect on neurosphere differentiation [2]	further results
CCN1C[C@]2(COC(=O)c3ccccc3N3C(=O)C[C@H](C)C3=O)CC[C@H](OC)[C@@]34[C@@H]5C[C@H]6[C@H](OC)[C@@H]5[C@](O)(C[C@@H]6OC)[C@@](O)([C@@H](OC)[C@H]23)[C@@H]14 [MLA, Methyllycaconitine]	reversed the effect of β-EP; also recorded: moderate or strong inhibitory effect	reversed the effect of β-EP; also recorded: moderate or strong inhibitory effect	stopped the effect of β-EP; also recorded: prevented, at various degrees		
CC(C)NCC(O)c1cc(O)cc(O)c1 (stereo not drawn) [MP, Metaproterenol]	reversed the effect of β-EP	reversed the effect of β-EP	stopped the effect of β-EP		PBMC NK cell activity (MADB106 cells; listed as MET): moderate or strong inhibitory effect; macrophage migration activity (MADB106 cells; listed as MET): moderate or strong inhibitory effect; effect on β-EP elimination of tumor cell lung retention (MADB106 cells; listed as MET): prevented, at various degrees
CCCCC[C@H](O)/C=C/[C@H]1[C@H](O)CC(=O)[C@@H]1CCCCCCC(=O)O [PGE1, prostaglandin E1]					BEP release ([1]; cells at 1 week): only moderately enhanced; POMC expression ([1]; cells at 1 week): no effect; BEP-release response ([1]; cells at 2 weeks): significantly increased; POMC-expression response ([1]; cells at 2 weeks): significantly increased
CCCC(=O)Nc1ncnc2c1ncn2[C@@H]1O[C@@H]2COP(=O)(O)O[C@H]2[C@H]1OC(=O)CCC [dbcAMP, dibutyryl cAMP]				moderate effect	
pituitary adenylate cyclase-activating peptide [PACAP]				moderate effect	
